Like-named read-outs stand apart in the source and are kept apart here.
Tests used:
GR [1] = biological target: T1, GR (Rattus norvegicus, UniProt P06536); experiment: AP-1 repression luciferase assay in U2OS cells stably transfected with rat GR; type: cell-based; conditions: Table 5, TPA-stimulated U2OS cells; for EC50: read-out: Repression AP-1 pot (EC50); for Emax: 12 h, read-out: Repression AP-1 % max repression
T1 construct: expressed in transfected cells; gift of Keith Yamamoto
T1 sequence (P06536 1-795): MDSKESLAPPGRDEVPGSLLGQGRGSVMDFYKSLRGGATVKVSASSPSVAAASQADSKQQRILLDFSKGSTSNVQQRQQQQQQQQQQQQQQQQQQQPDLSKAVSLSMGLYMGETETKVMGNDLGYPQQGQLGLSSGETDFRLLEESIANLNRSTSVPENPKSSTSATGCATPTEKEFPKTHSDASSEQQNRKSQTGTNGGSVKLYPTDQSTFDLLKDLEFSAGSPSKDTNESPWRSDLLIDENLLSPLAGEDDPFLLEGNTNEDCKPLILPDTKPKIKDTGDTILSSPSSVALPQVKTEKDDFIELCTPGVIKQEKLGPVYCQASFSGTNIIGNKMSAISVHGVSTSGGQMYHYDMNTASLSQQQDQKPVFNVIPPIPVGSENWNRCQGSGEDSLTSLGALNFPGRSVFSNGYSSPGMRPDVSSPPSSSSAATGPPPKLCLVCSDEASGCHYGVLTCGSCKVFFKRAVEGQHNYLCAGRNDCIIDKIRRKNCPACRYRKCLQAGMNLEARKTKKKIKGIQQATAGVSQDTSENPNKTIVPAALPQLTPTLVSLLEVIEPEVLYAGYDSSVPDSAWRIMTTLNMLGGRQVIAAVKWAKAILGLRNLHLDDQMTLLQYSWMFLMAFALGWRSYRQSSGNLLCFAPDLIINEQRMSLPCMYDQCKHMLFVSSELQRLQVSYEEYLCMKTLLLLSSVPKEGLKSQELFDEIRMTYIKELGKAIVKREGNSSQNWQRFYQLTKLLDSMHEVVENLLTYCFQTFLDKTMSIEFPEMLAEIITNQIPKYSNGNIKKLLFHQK
Procedure: For API repression assays, U2OS cells stably transfected with rat GR were grown in similar media as for CV-1 cells with the exception of the FBS concentration, which was 10% and the only antibiotic was […]. Cells were plated and transfected in a similar fashion, except for plasmids, which in this case were 50 ng/well AP1-Luc and 10 ng/well β-galactosidase. Post-transfection, cells were incubated with either 50 ng/mL TPA (Phorbol 12-myristate 13-acetate), or 50 ng/mL TPA and various hormone dilutions in 10% charcoal treated FBS media. The cells were incubated for 12 h, and the lysis, β-galactosidase assay, and luciferase assay were performed as previously described.

GR [2] = biological target: T2, GR (Homo sapiens, UniProt P04150); experiment: GRE (TAT3-Luc) activation luciferase assay in CV-1 cells transfected with GR; type: cell-based; conditions: Table 4; for EC50: read-out: GR pot (EC50)
T2 construct: expressed in transfected cells; host or cells: CV-1 cells, transient transfection (plasmid a gift of Keith Yamamoto, UCSF)
T2 sequence (P04150 1-777): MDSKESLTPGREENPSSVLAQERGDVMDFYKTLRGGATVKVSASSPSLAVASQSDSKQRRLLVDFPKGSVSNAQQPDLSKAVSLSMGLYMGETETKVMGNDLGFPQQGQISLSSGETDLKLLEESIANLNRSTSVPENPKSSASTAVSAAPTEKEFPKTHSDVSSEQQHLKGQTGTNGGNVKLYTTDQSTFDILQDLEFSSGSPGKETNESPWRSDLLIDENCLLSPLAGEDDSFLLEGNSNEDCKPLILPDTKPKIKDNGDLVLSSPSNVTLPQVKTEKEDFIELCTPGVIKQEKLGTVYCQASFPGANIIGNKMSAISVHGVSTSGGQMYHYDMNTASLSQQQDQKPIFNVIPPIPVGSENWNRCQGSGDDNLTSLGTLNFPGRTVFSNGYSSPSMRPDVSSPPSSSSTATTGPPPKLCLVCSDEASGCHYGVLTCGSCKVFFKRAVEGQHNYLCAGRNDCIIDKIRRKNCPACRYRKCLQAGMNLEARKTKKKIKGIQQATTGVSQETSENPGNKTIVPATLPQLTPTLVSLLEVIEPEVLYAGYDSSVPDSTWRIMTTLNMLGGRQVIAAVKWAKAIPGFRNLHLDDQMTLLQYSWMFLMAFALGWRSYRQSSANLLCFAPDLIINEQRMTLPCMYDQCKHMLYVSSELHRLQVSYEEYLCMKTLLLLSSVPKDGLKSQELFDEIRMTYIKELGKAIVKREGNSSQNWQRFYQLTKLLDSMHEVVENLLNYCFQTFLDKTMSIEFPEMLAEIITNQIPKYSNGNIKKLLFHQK
Procedure: Cells were plated into tissue culture treated, 96 well flat bottom plates (25,000 cells/well), and incubated for 12 h at 37° C. Cells were then transfected using the Lipofectamine PLUS transfection reagent (Gibco BRL). DNA-lipid complexes of 5 ng GR, 50 ng TAT3-Luc, 7.5 ng β-galactosidase, 1 μL-well PLUS reagent and 0.67 μL-well lipofectamine in 50 μL/well serum free media were added to cells and incubated for 4 h at 37° C. Complexes were removed and hormones diluted in 5% charcoal-stripped FBS were added to the cells, which were then incubated for 24 hours at 37° C. Media was removed and the cells were washed with 100 μL Ca^+2, Mg^+2 free phosphate buffered saline (PBS). Lysis was achieved by adding 50 μL of Passive Lysis Buffer (Promega Corp, Madison, Wis.) and shaking the plate for 15 min. 15 μL of this lysate was then used to assay β-galactosidase activity (β-galactosidase enzyme assay system, Promega Corp., recommended procedures followed). The Luciferase Assay System (Promega Corp.) was used to assay luciferase activity. 100 μL of luciferase assay reagent was added rapidly to the plate and luminescence was measured for 10 ms/well on an Analyst AD Detection System (LJL Biosystems, Sunnyvale, Calif.).

[3] = biological target: T3, glucocorticoid receptor (GR) (Homo sapiens, UniProt P04150); experiment: Glucocorticoid Receptor Competitor Assay Kit (Panvera) ligand binding; conditions: Table 3; relative binding affinity, dexamethasone = 100
T3 construct: purchased Panvera Corp, Madison, Wis
T3 sequence (P04150 1-777): T2 sequence (P04150 1-777)
Description: The Glucocorticoid Receptor Competitor Assay Kit (Panvera Corp, Madison, Wis.) was used for ligand binding studies. The recommended room temperature protocol was followed for all assayed ligands.

MR = biological target: T4, MR (Homo sapiens, UniProt P08235); experiment: MR activation (max fold activation); type: cell-based; conditions: Table 4
T4 sequence (P08235 1-984): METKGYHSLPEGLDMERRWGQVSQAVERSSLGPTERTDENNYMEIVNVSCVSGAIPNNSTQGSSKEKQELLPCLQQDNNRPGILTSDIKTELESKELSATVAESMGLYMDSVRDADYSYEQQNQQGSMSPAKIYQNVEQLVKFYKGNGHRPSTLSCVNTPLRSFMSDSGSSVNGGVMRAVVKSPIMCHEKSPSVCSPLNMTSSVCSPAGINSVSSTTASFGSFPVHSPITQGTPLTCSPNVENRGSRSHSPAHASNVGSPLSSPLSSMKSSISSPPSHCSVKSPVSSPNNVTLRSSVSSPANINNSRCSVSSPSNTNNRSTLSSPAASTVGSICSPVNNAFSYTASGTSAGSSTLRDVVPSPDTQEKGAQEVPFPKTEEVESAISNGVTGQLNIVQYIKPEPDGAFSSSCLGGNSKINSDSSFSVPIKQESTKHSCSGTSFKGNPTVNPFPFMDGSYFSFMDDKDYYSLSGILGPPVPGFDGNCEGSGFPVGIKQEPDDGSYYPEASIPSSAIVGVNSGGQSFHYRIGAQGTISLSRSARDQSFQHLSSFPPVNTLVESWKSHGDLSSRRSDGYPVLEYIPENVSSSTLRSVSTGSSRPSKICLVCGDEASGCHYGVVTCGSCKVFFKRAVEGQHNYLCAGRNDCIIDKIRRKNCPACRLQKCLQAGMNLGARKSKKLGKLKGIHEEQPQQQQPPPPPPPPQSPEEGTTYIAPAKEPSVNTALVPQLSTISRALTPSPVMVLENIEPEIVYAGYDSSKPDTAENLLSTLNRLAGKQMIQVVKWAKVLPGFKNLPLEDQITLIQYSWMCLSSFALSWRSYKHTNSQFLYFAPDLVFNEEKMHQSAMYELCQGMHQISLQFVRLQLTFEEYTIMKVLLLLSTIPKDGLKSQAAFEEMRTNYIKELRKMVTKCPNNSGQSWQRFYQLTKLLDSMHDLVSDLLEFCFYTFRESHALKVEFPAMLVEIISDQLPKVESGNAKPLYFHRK

Coll A = Coll A repression; type: cell-based; conditions: for Emax: read-out: Repression Coll A % max repression; for EC50: read-out: Repression Coll A pot (EC50)
NF-κB = NF-κB repression luciferase assay in A549 cells; type: cell-based, human; conditions: Table 5, TNF-α-stimulated A549 cells; for EC50: Homo sapiens, read-out: Repression NF-KB pot (EC50)
Description: Plasmids for GR (human, pSG5 backbone), AP1-Luc (synthetic AP1 response element upstream of a firefly luciferase gene), TAT3-Luc (three copies of the tyrosine aminotransferase glucocorticoid response element upstream of a firefly luciferase gene), β-galactosidase (used as a transfection control), as well as two stable transfected cells lines: an A549 (human, lung carcinoma) cell line stably transfected with a κB response element upstream of a firefly luciferase gene, (R. M. Nissen et al., Genes Dev., 14(18):2314-29, (2000)) and a U2OS (human, osteosarcoma) stably transfected with rat GR (I. Rogatsky, et al., Mol. Cell. Biol., 1997, 17, 3181-3193) were a gift of Professor Keith Yamamoto (Department of Biochemistry, University of California, San Francisco).
For NF-κB repression assays, A549 cells stably transfected with a luciferase reporter were grown under the same conditions as CV-1 cells. 50,000 cells/well were plated into 96 well plates and incubated for 12 h at 37° C. Either TNF-α alone or mixed with various hormone dilutions in media were then added to the cells, which were then incubated for 8 hours. Procedures for lysis and luciferase assay were performed as previously described. Protein content was used as a control in this case and the recommended procedures using the BCA Protein Assay Kit (Roche) were followed.

| Structure (SMILES) | EC50 (GR [1]) | Emax (GR [1]; U2OS) | GRE activation max fold activation (GR [2]) | EC50 (GR [2]) | GR binding RBA (dex = 100) [3] | MR max fold activation (MR) | Emax (Coll A; Table 5) | EC50 (Coll A; Table 5) | EC50 (NF-κB) | Repression NF-KB % max repression (NF-κB) | Emax (GR [1]) | Emax (Coll A; Table 2) | EC50 (Coll A; Table 2) | Repression Coll A % max repression (Coll A; Table 5) |
| --- | --- | --- | --- | --- | --- | --- | --- | --- | --- | --- | --- | --- | --- | --- |
| CC12Cc3cnn(-c4ccc(F)cc4)c3C=C1CCCC2C(O)c1csc2ccccc12 (centres unmarked) [Compound 221, 3a,7a-(Dihydro-benzo[b]thiophen-3-yl)-[1-(4-fluoro-phenyl)-4a-methyl-4,4a,5,6,7,8-hexahydro-1H-benzo[f]indazol-5-yl]-methanol] | 0.0053 µM | 74% | 21 | 0.313 µM | 93 | 2.0 ± 0.7 | – | – | – | – | – | – | – | – |
| CC12Cc3cnn(-c4ccc(F)cc4)c3C=C1CCCC2C(O)c1cccc(O)c1 (centres unmarked) [Compound 229, 3-{[1-(4-Fluoro-phenyl)-4a-methyl-4,4a,5,6,7,8-hexahydro-1H-benzo[f]indazol-5-yl]-hydroxy-methyl}-phenol] | 0.0166 µM | 77% | 55 ± 2 | 0.11 ± 0.007 µM | 52 | 3.1 ± 1.0 | – | – | – | – | – | – | – | – |
| CC12Cc3cnn(-c4ccc(F)cc4)c3C=C1CCCC2C(O)c1ccc(O)cc1 (centres unmarked) [Compound 231, 4-{[1-(4-Fluoro-phenyl)-4a-methyl-4,4a,5,6,7,8-hexahydro-1H-benzo[f]indazol-5-yl]-hydroxy-methyl}-phenol] | 0.0128 µM | 68% | 69 ± 25 | 0.33 ± 0.092 µM | 36 | 2.9 ± 0.5 | 70% | 0.028 µM | – | – | – | – | – | – |
| C[C@]12CCC(=O)C=C1CC[C@@H]1[C@@H]2[C@@H](O)C[C@@]2(C)[C@H]1CC[C@]2(O)C(=O)CO [Cortisol, cortisol] | – | – | – | – | – | – | – | 0.0021 µM | 0.0084 µM | 83% | – | – | – | – |
| C[C@@H]1C[C@H]2[C@@H]3CCC4=CC(=O)C=C[C@]4(C)[C@@]3(F)[C@@H](O)C[C@]2(C)[C@@]1(O)C(=O)CO [Dexamethasone, dexamethasone, reference compound] | – | – | – | – | – | – | – | – | 0.0015 µM | 87% | 89% | 84% | 0.00036 µM | 84% |

Reference: patent US7947726B2, “Non-steroidal ligands for the glucocorticoid receptor, and compositions thereof” (The Regents of the University of California, priority 2002, dated 2011)
